pIC50: −log10 of the molar value.
What follows are compounds tested against T1, cereblon (CRBN)—DNA damage protein 1 (DDB1) complex (Homo sapiens, UniProt Q96SW2) (assay: Cereblon HTRF binding assay).
T1 construct: encoding amino acid residues 1 to 442 (Uniprot Q96SW2); hexahistidine (N); thrombin cleavage site (N); made in house; host or cells: Sf9 insect cells (baculovirus co-infection)
Excerpt: The synthesized sequence was designed to encode an N-terminal hexahistidine tag, a thrombin cleavage site, an AviTag™ and a tobacco etch virus protease (TEV) cleavage site followed by the CBRN sequence. The resulting protein sequence is listed below.
The synthesized sequence was designed to encode an N-terminal hexahistidine tag, a tobacco etch virus protease (TEV) cleavage site followed by the DDB1 sequence. […] The linker amino acid residues are underlined and shown in italics.
Baculovirus production of CBRN and DDB1: Recombinant bacmid and P2 virus of CBRN and DDB1 was generated according to the Bac-to-Bac Baculovirus Expression System manual (ThermoFisher Scientific).
Protein Purification: Protein purification was initiated by thawing cells (resuspended in Lysis buffer) at r.t. Once thawed, NaCl was added to a final concentration of 200 mM, followed by 0.01 μL/mL Benzonase™ and the lysate was incubated with slow stirring for 20 minutes. After the freeze-thaw lysis, the whole cell lysate was centrifuged at 48 000 g for 45 minutes and all following purification steps were done on ice or in cold-room. Supernatant (cell lysate) was mixed with 1 mL/50 mL lysate Ni Sepharose™ 6 Fast Flow (Cytiva) pre-equilibrated with Wash buffer (50 mM Tris-Cl pH 8, 20 mM Imidazole, 500 mM NaCl, 10% Glycerol, 1 mM TCEP) and incubated with slow stirring for 1 h. The mix was loaded in a 70 mL open gravity flow column, washed with 10 bed volumes of Wash buffer, and stepwise eluted with 300 mM imidazole in Wash buffer. […] After biotinylation, the CBRN/DDB1 complex was purified by Size Exclusion Chromatography on a HiLoad™ 26/60 Superdex™ 200 column equilibrated in SEC buffer (50 mM HEPES pH 7.5, 200 mM NaCl, 5% glycerol, 1 mM TCEP) before flash-freezing in liquid nitrogen and storage at −80° C.
The assay mixture in a total volume of 4 μL consists of 50 mM Tris-HCl at pH 7.5, 100 mM NaCl, 0.01% Pluronic F127, 1 mM TCEP, 500 μM EDTA, 0.2 nM CRBN-DDB1, 0.2 nM terbium cryptate labeled streptavidin, and 2 nM Cyanine 5-labeled lenalidomide as the probe. […] Reagents were dispensed into the 384-well assay microplate using a Certus Flex liquid dispenser. After incubation for 2 h at r.t., the assay plates were read on a PHERAstar FSX plate reader (BMG Labtech) in the HTRF mode. The raw data from PHERAstar was directly imported into Genedata Screener for analysis. […] The ratio was normalized to positive and negative controls on the same plates to calculate percent inhibition: I %=(I−NC)/(PC−NC), where I are readings from the compound treated well, NC and PC are average readings from negative control wells and positive control wells, respectively. IC50 values were obtained by fitting the I % vs. compound concentration [I] to I %=S0+(SInf−S0)/(1+((IC50/[I])^n)), where S0 is the fitted activity level at zero concentration of test compound, SInf is the fitted activity level at […] concentration of test compound, and n is the hill coefficient of the curve.
The IC50 values reported below are the calculated mean result of one or more experiments.

T1 sequence (Q96SW2 with tags, fused parts or gaps): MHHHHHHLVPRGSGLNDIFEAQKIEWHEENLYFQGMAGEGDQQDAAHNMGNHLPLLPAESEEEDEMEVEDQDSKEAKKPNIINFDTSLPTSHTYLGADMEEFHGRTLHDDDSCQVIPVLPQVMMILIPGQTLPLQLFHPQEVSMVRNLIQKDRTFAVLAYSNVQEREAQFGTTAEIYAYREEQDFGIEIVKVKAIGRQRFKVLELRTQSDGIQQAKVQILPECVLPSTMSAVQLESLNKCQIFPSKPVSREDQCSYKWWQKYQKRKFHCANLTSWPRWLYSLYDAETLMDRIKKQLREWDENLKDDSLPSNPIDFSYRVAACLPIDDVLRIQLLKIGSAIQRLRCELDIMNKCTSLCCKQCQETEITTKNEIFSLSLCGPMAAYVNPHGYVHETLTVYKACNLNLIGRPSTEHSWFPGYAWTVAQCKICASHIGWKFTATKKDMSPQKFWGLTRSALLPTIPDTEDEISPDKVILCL

| SMILES | pIC50 |
| --- | --- |
| O=C1CCN(c2ccn3ccnc3c2)C(=O)N1 [Example 7, 1-(Imidazo[1,2-a]pyridin-7-yl)dihydropyrimidine-2,4 (1H,3H)-dione] | 5.52 |
| O=C1CCN(c2ccc3c(c2)NCC3)C(=O)N1 [Example 22, 1-(Indolin-6-yl)dihydropyrimidine-2,4 (1H,3H)-dione] | 6.31 |
| O=C1CCN(c2ccc3[nH]ncc3c2)C(=O)N1 [Example 35, 1-(1H-Indazol-5-yl)dihydropyrimidine-2,4 (1H,3H)-dione] | 5.53 |
| CN1CCN(c2c[nH]c3ccc(N4CCC(=O)NC4=O)cc23)CC1 [Example 78, 1-(3-(4-Methylpiperazin-1-yl)-1H-indol-5-yl)dihydropyrimidine-2,4 (1H,3H)-dione] | 5.73 |
| CC(=O)N1CCN(c2c[nH]c3ccc(N4CCC(=O)NC4=O)cc23)CC1 [Example 79, 1-(3-(4-Acetylpiperazin-1-yl)-1H-indol-5-yl)dihydropyrimidine-2,4 (1H,3H)-dione] | 5.70 |
| O=C1CCN(c2ccc3sccc3c2)C(=O)N1 [Example 130, 1-(Benzo[b]thiophen-5-yl)dihydropyrimidine-2,4 (1H,3H)-dione] | 6.15 |
| Cn1ccc2c(N3CCC(=O)NC3=O)cc(N3CCNCC3)cc21 [Example 90, 1-(1-Methyl-6-(piperazin-1-yl)-1H-indol-4-yl)dihydropyrimidine-2,4 (1H,3H)-dione] | 6.11 |
| O=C1CCN(c2ccc3c(c2)NCCC3)C(=O)N1 [Example 32, 1-(1,2,3,4-Tetrahydroquinolin-7-yl)dihydropyrimidine-2,4 (1H,3H)-dione] | 5.91 |
| O=C1CCN(c2cccc3ncsc23)C(=O)N1 [Example 2, 1-(Benzo[d]thiazol-7-yl)dihydropyrimidine-2,4 (1H,3H)-dione] | 5.70 |
| COCc1cc(N2CCC(=O)NC2=O)c2ccn(C)c2c1 [Example 19, 1-(6-(Methoxymethyl)-1-methyl-1H-indol-4-yl)dihydropyrimidine-2,4 (1H,3H)-dione] | 6.37 |
| Cn1c(C2CCNCC2)cc2ccc(N3CCC(=O)NC3=O)cc21 [Example 84, 1-(1-Methyl-2-(piperidin-4-yl)-1H-indol-6-yl)dihydropyrimidine-2,4 (1H,3H)-dione] | 6.45 |
| COc1cc2cc[nH]c2cc1N1CCC(=O)NC1=O [Example 61, 1-(5-Methoxy-1H-indol-6-yl)dihydropyrimidine-2,4 (1H,3H)-dione] | 5.82 |
| Cc1cn(-c2ccc3cc[nH]c3c2)c(=O)[nH]c1=O [Example 15, 1-(1H-Indol-6-yl)-5-methylpyrimidine-2,4 (1H,3H)-dione] | 4.98 |
| O=C1CCN(c2cc3[nH]ccc3cc2F)C(=O)N1 [Example 60, 1-(5-Fluoro-1H-indol-6-yl)dihydropyrimidine-2,4 (1H,3H)-dione] | 6.35 |
| Cn1c(=O)oc2cc(N3CCC(=O)NC3=O)ccc21 [Example 12, 1-(3-Methyl-2-oxo-2,3-dihydrobenzo[d]oxazol-6-yl)dihydropyrimidine-2,4 (1H,3H)-dione] | 4.96 |
| O=C1CCN(c2cc(Cl)c3cc[nH]c3c2)C(=O)N1 [Example 53, 1-(4-Chloro-1H-indol-6-yl)dihydropyrimidine-2,4 (1H,3H)-dione] | 6.61 |
| O=C1CCN(c2ccc(N3CCNCC3)c3[nH]ccc23)C(=O)N1 [Example 123, 1-(7-(Piperazin-1-yl)-1H-indol-4-yl)dihydropyrimidine-2,4 (1H,3H)-dione] | 6.22 |
| O=c1[nH]c(=O)n(-c2ccc3cc[nH]c3c2)cc1F [Example 14, 5-Fluoro-1-(1H-indol-6-yl)pyrimidine-2,4 (1H,3H)-dione] | 6.29 |

| SMILES | pIC50 |
| --- | --- |
| O=C1CCN(c2ccc3c(c2)CNCC3)C(=O)N1 [Example 28, 1-(1,2,3,4-Tetrahydroisoquinolin-7-yl)dihydropyrimidine-2,4 (1H,3H)-dione] | 4.77 |
| Cc1cc(N2CCC(=O)NC2=O)cc2[nH]ccc12 [Example 51, 1-(4-Methyl-1H-indol-6-yl)dihydropyrimidine-2,4 (1H,3H)-dione] | 6.29 |
| Cn1ncc2cc(N3CCC(=O)NC3=O)ccc21 [Example 6, 1-(1-Methyl-1H-indazol-5-yl)dihydropyrimidine-2,4 (1H,3H)-dione] | 5.41 |
| Cc1c(N2CCC(=O)NC2=O)cnc2cc[nH]c12 [Example 49, 1-(7-Methyl-1H-pyrrolo[3,2-b]pyridin-6-yl)dihydropyrimidine-2,4 (1H,3H)-dione] | 6.91 |
| CN1CCCc2cc(N3CCC(=O)NC3=O)ccc21 [Example 27, 1-(1-Methyl-1,2,3,4-tetrahydroquinolin-6-yl)dihydropyrimidine-2,4 (1H,3H)-dione] | 5.98 |
| CC(=O)N1CCC(n2ccc3cc(N4CCC(=O)NC4=O)ccc32)CC1 [Example 115, 1-(1-(1-Acetylpiperidin-4-yl)-1H-indol-5-yl)dihydropyrimidine-2,4 (1H,3H)-dione] | 6.03 |
| O=C1CCN(c2ccc3ccoc3c2)C(=O)N1 [Example 1, 1-(Benzofuran-6-yl)dihydropyrimidine-2,4 (1H,3H)-dione] | 5.68 |
| O=C1CCN(c2cccc3[nH]c(C4CCNCC4)cc23)C(=O)N1 [Example 86, 1-(2-(Piperidin-4-yl)-1H-indol-4-yl)dihydropyrimidine-2,4 (1H,3H)-dione] | 6.54 |
| O=C1CCN(c2ccc3cc[nH]c3c2F)C(=O)N1 [Example 54, 1-(7-Fluoro-1H-indol-6-yl)dihydropyrimidine-2,4 (1H,3H)-dione] | 6.73 |
| Cc1c(-n2ccc(=O)[nH]c2=O)cnc2cc[nH]c12 [Example 48, 1-(7-Methyl-1H-pyrrolo[3,2-b]pyridin-6-yl)pyrimidine-2,4 (1H,3H)-dione] | 5.71 |
| Cc1c(N2CCC(=O)NC2=O)c(F)cc2cc[nH]c12 [Example 58, 1-(5-Fluoro-7-methyl-1H-indol-6-yl)dihydropyrimidine-2,4 (1H,3H)-dione] | 6.54 |
| O=C1CCN(c2ccc3c(ccn3C3CCNCC3)c2)C(=O)N1 [Example 113, 1-(1-(Piperidin-4-yl)-1H-indol-5-yl)dihydropyrimidine-2,4 (1H,3H)-dione] | 5.97 |
| CNC(=O)Cn1ccc2ccc(N3CCC(=O)NC3=O)cc21 [Example 68, 2-(6-(2,4-Dioxotetrahydropyrimidin-1 (2H)-yl)-1H-indol-1-yl)-N-methylacetamide] | 5.65 |
| O=C1CCN(c2ccc3sc(N4CCNCC4)nc3c2)C(=O)N1 [Example 100, 1-(2-(Piperazin-1-yl)benzo[d]thiazol-5-yl)dihydropyrimidine-2,4 (1H,3H)-dione] | 5.97 |
| O=C1CCN(c2cnc3cnoc3c2)C(=O)N1 [Example 36, 1-(Isoxazolo[4,5-b]pyridin-6-yl)dihydropyrimidine-2,4 (1H,3H)-dione] | 6.94 |
| CNC(=O)Cc1c[nH]c2cc(N3CCC(=O)NC3=O)ccc12 [Example 66, 2-(6-(2,4-Dioxotetrahydropyrimidin-1 (2H)-yl)-1H-indol-3-yl)-N-methylacetamide] | 6.58 |
| O=C1CCN(c2ccc3nc[nH]c3c2)C(=O)N1 [Example 41, 1-(1H-Benzo[d]imidazol-6-yl)dihydropyrimidine-2,4 (1H,311)-dione] | 5.93 |
| COc1c(N2CCC(=O)NC2=O)ccc2cc[nH]c12 [Example 62, 1-(7-Methoxy-1H-indol-6-yl)dihydropyrimidine-2,4 (1H,3H)-dione] | 5.67 |

— patent US20230374007A1, “COMPOUNDS AND THEIR USE IN TREATING CANCER” (AstraZeneca AB, priority 2020, published 2023)
